The text below walks through data of patent publication US9586956B2, “Isoquinoline and naphthyridine derivatives” (Genentech, Inc., priority 2012, dated 2017).

The target of this experiment is T1, purified human MAP4K4 kinase domain (Homo sapiens, UniProt O95819).
T1 construct: purified human MAP4K4 kinase domain
T1 sequence (O95819 25-289 limits assumed): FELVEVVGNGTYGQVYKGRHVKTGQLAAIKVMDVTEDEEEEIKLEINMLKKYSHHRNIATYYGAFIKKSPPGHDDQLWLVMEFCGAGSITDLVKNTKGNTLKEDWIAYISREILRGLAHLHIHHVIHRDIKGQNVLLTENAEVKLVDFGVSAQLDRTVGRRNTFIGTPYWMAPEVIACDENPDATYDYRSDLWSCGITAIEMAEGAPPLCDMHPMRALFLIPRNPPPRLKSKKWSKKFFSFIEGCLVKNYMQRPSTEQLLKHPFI
As to the kind of experiment: MAP4K4 Inhibition Assay Protocol No. 1 (Caliper LabChip, moesin-derived peptide phosphorylation). Format: biochemical. Conditions: Assay 1; 1 nM enzyme, 10 uM ATP, 45 min. The procedure:
The kinase activity of purified human MAP4K4 kinase domain was measured by monitoring the phosphorylation of a peptide substrate derived from moesin protein (Leu-Gly-Arg-Asp-Lys-Tyr-Lys-Thr-Leu-Arg-Gln-Ile-Arg-Gln) fluorescently labeled on the N-terminus with 5-carboxyfluorescein using the Caliper LabChip technology (Caliper Life Sciences, Hopkinton, Mass.). To determine inhibition constants (IC50), compounds were serially diluted in DMSO and added to 10 uL kinase reactions containing 1 nM purified MAP4K4 enzyme, 1 uM peptide substrate, 10 uM ATP, 10 mM MgCl2, 1 mM EGTA, 50 mM Hepes pH 7.2, 1 mM DTT, 0.01% Triton X-100, and 2% DMSO. Reactions were incubated at room temperature in Perkin Elmer Proxiplates for 45 minutes and stopped by the addition of 10 uL of an EDTA-containing solution (50 mM Hepes pH 7.2, 40 mM EDTA, 0.02% Triton X-100). The fraction of phosphorylated peptide was determined as a fraction of total peptide substrate using the Caliper Lab Chip 3000 according to the manufacturer's instructions. IC50 values were determined using the four-parameter non-linear fit model.
What is called IC50 is the concentration needed to halve the response being measured. Read a high IC50 as a need for much substance. `Nc1ncc(C(=O)N2CCN(CCO)CC2)c2ccc(-c3cccc(F)c3)cc12` [Example 65, [1-amino-7-(3-fluorophenyl)-4-isoquinolyl]-[4-(2-hydroxyethyl)piperazin-1-yl]methanone]: the midpoint of inhibition, the IC50, lay at 1.7 µM.

The compound `NC(=O)c1cnc(N)c2cc(-c3cccc(F)c3)ccc12` [Example 66, 1-amino-7-(3-fluorophenyl) isoquinoline-4-carboxamide] gave an IC50 of 0.0327 µM.

`CN1CCC(NC(=O)c2cnc(N)c3cc(-c4cccc(F)c4)ccc23)CC1` [Example 67, 1-amino-7-(3-fluorophenyl)-N-(1-methyl-4-piperidyl) isoquinoline-4-carboxamide] registered a 50% inhibitory concentration (IC50) of 0.651 µM.

In turn, `Nc1ncc(C(=O)NC2CCOCC2)c2ccc(-c3cccc(F)c3)cc12` [Example 68, 1-amino-7-(3-fluorophenyl)-N-tetrahydropyran-4-yl-isoquinoline-4-carboxamide] registered a 50% inhibitory concentration (IC50) of 0.12 µM. `Nc1ncc(C(=O)NCCN2CCC(O)CC2)c2ccc(-c3cccc(F)c3)cc12` [Example 69, 1-amino-7-(3-fluorophenyl)-N-[2-(4-hydroxy-1-piperidyl)ethyl] isoquinoline-4-carboxamide] came in with an IC50 of 0.35 µM. This IC50 is about 2.9-fold higher than that of the compound before. Under `Nc1ncc(C(=O)NC2CCCC(O)C2)c2ccc(-c3cccc(F)c3)cc12` (centres unmarked) [Example 70, 1-amino-7-(3-fluorophenyl)-N-(3-hydroxycyclohexyl) isoquinoline-4-carboxamide] stands 0.0852 µM; under `CNC(=O)c1cnc(N)c2cc(-c3cccc(F)c3)ccc12` [Example 74, 1-amino-7-(3-fluorophenyl)-N-methyl-isoquinoline-4-carboxamide], 0.0395 µM; under `COc1ccc(NC(=O)c2cnc(N)c3cc(-c4cccc(F)c4)ccc23)cc1` [Example 75, 1-amino-7-(3-fluorophenyl)-N-(4-methoxyphenyl) isoquinoline-4-carboxamide], 0.0148 µM. `Nc1ncc(C(=O)NCCN2CCS(=O)(=O)CC2)c2ccc(-c3cccc(F)c3)cc12` [Example 76, 1-amino-N-[2-(1,1-dioxo-1,4-thiazinan-4-yl)ethyl]-7-(3-fluorophenyl) isoquinoline-4-carboxamide] came in with an IC50 of 0.245 µM. On to `Nc1ncc(C(=O)NCCN2CCCC2=O)c2ccc(-c3cccc(F)c3)cc12` [Example 77, 1-amino-7-(3-fluorophenyl)-N-[2-(2-oxopyrrolidin-1-yl)ethyl]isoquinoline-4-carboxamide], for which the midpoint of inhibition, the IC50, lay at 0.507 µM. Turning to `CC(C)(N)CNC(=O)c1cnc(N)c2cc(-c3cccc(F)c3)ccc12` [Example 78, 1-amino-N-(2-amino-2-methyl-propyl)-7-(3-fluorophenyl) isoquinoline-4-carboxamide], half-maximal inhibition (IC50) required 2.4 µM.

The compound `CC(=O)NCCNC(=O)c1cnc(N)c2cc(-c3cccc(F)c3)ccc12` [Example 80, N-(2-acetamidoethyl)-1-amino-7-(3-fluorophenyl) isoquinoline-4-carboxamide] showed a half-maximal inhibitory concentration (IC50) of 0.25 µM. With `Nc1ncc(C(=O)NCC(=O)N2CCOCC2)c2ccc(-c3cccc(F)c3)cc12` [Example 81, 1-amino-7-(3-fluorophenyl)-N-(2-morpholino-2-oxo-ethyl)isoquinoline-4-carboxamide], the IC50 came out at 0.138 µM. `Nc1ncc(C(=O)NCCN2CCNC2=O)c2ccc(-c3cccc(F)c3)cc12` [Example 82, 1-amino-7-(3-fluorophenyl)-N-[2-(2-oxoimidazolidin-1-yl)ethyl]isoquinoline-4-carboxamide]: half-maximal inhibition (IC50) was put at 0.148 µM.

With `CN1CCN(CCNC(=O)c2cnc(N)c3cc(-c4cccc(F)c4)ccc23)CC1` [Example 83, 1-amino-7-(3-fluorophenyl)-N-[2-(4-methylpiperazin-1-yl)ethyl]isoquinoline-4-carboxamide], the IC50 worked out at 0.217 µM. Compound `C[C@@H](NC(=O)c1cnc(N)c2cc(-c3cccc(F)c3)ccc12)C(N)=O` [Example 84, 1-amino-N-[(1R)-2-amino-1-methyl-2-oxo-ethyl]-7-(3-fluorophenyl) isoquinoline-4-carboxamide] displayed a 50% inhibitory concentration (IC50) of 0.557 µM. Under `C[C@H](NC(=O)c1cnc(N)c2cc(-c3cccc(F)c3)ccc12)C(N)=O` [Example 85, 1-amino-N-[(1S)-2-amino-1-methyl-2-oxo-ethyl]-7-(3-fluorophenyl) isoquinoline-4-carboxamide] stands 0.363 µM; under `CN1CCC(Oc2ccc(NC(=O)c3cnc(N)c4cc(-c5cccc(F)c5)ccc34)cc2)CC1` [Example 86, 1-amino-7-(3-fluorophenyl)-N-[4-[(1-methyl-4-piperidyl)oxy]phenyl] isoquinoline-4-carboxamide], 0.0081 µM; under `CNC(=O)c1nc(CNC(=O)c2cnc(N)c3cc(-c4cccc(F)c4)ccc23)no1` [Example 87, 3-[[[1-amino-7-(3-fluorophenyl)isoquinoline-4-carbonyl]amino]methyl]-N-methyl-1,2,4-oxadiazole-5-carboxamide], 0.0452 µM.

The compound `CC(C)(CNC(=O)c1cnc(N)c2cc(-c3cccc(F)c3)ccc12)N1CCOCC1` [Example 88, 1-amino-7-(3-fluorophenyl)-N-(2-methyl-2-morpholino-propyl)isoquinoline-4-carboxamide] gave an IC50 of 0.95 µM. This IC50 is about 21-fold higher than that of the compound before. In the case of `Nc1ncc(C(=O)NCc2cnccn2)c2ccc(-c3cccc(F)c3)cc12` [Example 89, 1-amino-7-(3-fluorophenyl)-N-(pyrazin-2-ylmethyl) isoquinoline-4-carboxamide], the 50% inhibitory concentration (IC50) amounted to 0.231 µM.

Regarding `COc1ccccc1CNC(=O)c1cnc(N)c2cc(-c3cccc(F)c3)ccc12` [Example 90, 1-amino-7-(3-fluorophenyl)-N-[(2-methoxyphenyl)methyl]isoquinoline-4-carboxamide], the midpoint of inhibition, the IC50, lay at 0.141 µM. Against the preceding compound, the IC50 is about 1.6-fold lower.

Regarding `COc1cccc(CNC(=O)c2cnc(N)c3cc(-c4cccc(F)c4)ccc23)c1` [Example 91, 1-amino-7-(3-fluorophenyl)-N-[(3-methoxyphenyl)methyl]isoquinoline-4-carboxamide], half-maximal inhibition (IC50) required 0.0511 µM. This IC50 is about 2.8-fold lower than that of the compound before. The result for `CC(C)CNC(=O)c1cnc(N)c2cc(-c3cccc(F)c3)ccc12` [Example 92, 1-amino-7-(3-fluorophenyl)-N-isobutyl-isoquinoline-4-carboxamide] reads 0.0335 µM; that for `Nc1ncc(C(=O)NCc2ccncc2)c2ccc(-c3cccc(F)c3)cc12` [Example 93, 1-amino-7-(3-fluorophenyl)-N-(4-pyridylmethyl) isoquinoline-4-carboxamide], 0.0645 µM. Turning to `Nc1ncc(C(=O)NCc2cccnc2)c2ccc(-c3cccc(F)c3)cc12` [Example 94, 1-amino-7-(3-fluorophenyl)-N-(3-pyridylmethyl) isoquinoline-4-carboxamide], the IC50 was 0.077 µM. Regarding `Cc1cc(NC(=O)c2cnc(N)c3cc(-c4cccc(F)c4)ccc23)ccn1` [Example 95, 1-amino-7-(3-fluorophenyl)-N-(2-methyl-4-pyridyl) isoquinoline-4-carboxamide], the IC50 stood at 0.0391 µM. The result for `Nc1ncc(C(=O)NCc2ccccn2)c2ccc(-c3cccc(F)c3)cc12` [Example 96, 1-amino-7-(3-fluorophenyl)-N-(2-pyridylmethyl) isoquinoline-4-carboxamide] reads 0.179 µM. In the case of `Nc1ncc(C(=O)NC2CCC2)c2ccc(-c3cccc(F)c3)cc12` [Example 97, 1-amino-N-cyclobutyl-7-(3-fluorophenyl) isoquinoline-4-carboxamide], it took 0.03 µM to reach half-maximal inhibition (IC50). The result for `Nc1ncc(C(=O)NC2CCCC2)c2ccc(-c3cccc(F)c3)cc12` [Example 98, 1-amino-N-cyclopentyl-7-(3-fluorophenyl) isoquinoline-4-carboxamide] reads 0.0459 µM. Regarding `CCNC(=O)c1cnc(N)c2cc(-c3cccc(F)c3)ccc12` [Example 99, 1-amino-N-ethyl-7-(3-fluorophenyl)isoquinoline-4-carboxamide], the IC50 stood at 0.0257 µM. In turn, `Nc1ncc(C(=O)NCCCO)c2ccc(-c3cccc(F)c3)cc12` [Example 100, 1-amino-7-(3-fluorophenyl)-N-(3-hydroxypropyl) isoquinoline-4-carboxamide] yielded an IC50 of 0.0395 µM. Compound `Nc1ncc(C(=O)NCC2CC2)c2ccc(-c3cccc(F)c3)cc12` [Example 101, 1-amino-N-(cyclopropylmethyl)-7-(3-fluorophenyl) isoquinoline-4-carboxamide] registered an IC50 of 0.0399 µM. The IC50 values of the last two compounds are within 1.5-fold of each other. Regarding `CC(C)NC(=O)c1cnc(N)c2cc(-c3cccc(F)c3)ccc12` [Example 102, 1-amino-7-(3-fluorophenyl)-N-isopropyl-isoquinoline-4-carboxamide], the IC50 is 0.135 µM.

As to `NC(=O)CNC(=O)c1cnc(N)c2cc(-c3cccc(F)c3)ccc12` [Example 103, 1-amino-N-(2-amino-2-oxo-ethyl)-7-(3-fluorophenyl) isoquinoline-4-carboxamide], the IC50 came out at 0.115 µM. With `Cc1cnc(CNC(=O)c2cnc(N)c3cc(-c4cccc(F)c4)ccc23)cn1` [Example 104, 1-amino-7-(3-fluorophenyl)-N-[(5-methylpyrazin-2-yl)methyl]isoquinoline-4-carboxamide], 0.0909 µM corresponded to half-maximal inhibition (IC50). With `Cc1ncccc1NC(=O)c1cnc(N)c2cc(-c3cccc(F)c3)ccc12` [Example 105, 1-amino-7-(3-fluorophenyl)-N-(2-methyl-3-pyridyl) isoquinoline-4-carboxamide], the IC50 came to 0.0377 µM. Take `Nc1ncc(C(=O)Nc2ccncc2)c2ccc(-c3cccc(F)c3)cc12` [Example 106, 1-amino-7-(3-fluorophenyl)-N-(4-pyridyl)isoquinoline-4-carboxamide]: the IC50 is 0.0224 µM. Against the preceding compound, the IC50 is about 1.7-fold lower.
